We go through 16 compounds from patent publication US20230365537A1, “POLO LIKE KINASE 4 INHIBITORS” (ORIC Pharmaceuticals, Inc., priority 2021, published 2023).

One experiment concerns the target human recombinant PLK4 (Homo sapiens (Human), UniProt O00444). The experiment can be described thus: PLK4 Biochemical Assay (ADP-Glo). To be noted: 0.5 nM PLK4, 8.0 µM ATP, 4.7 µM MBP, 6 hours at RT. In short, it runs like this: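 Recombinant human PLK4 (added at 1.0 nM) was preincubated 15 min at RT with compound in 50 mM HEPES pH 7.5, 10 mM MgCl2, 1 mM EGTA, 1 mM DTT, 0.01% Brij-35, 0.01% BSA. ADP formed was detected by ADP-Glo luminescence (40 min ATP depletion, 30 min detection). IC50 came from a four-parameter fit.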
A general note: In ADP-Glo the light output rises with the ADP produced.

The next experiment deals with CHP-134 cells. The experiment can be described thus: CHP134 CellTiter-Glo (CTG) Assay. The class given is cell-based. Particulars: Homo sapiens, CHP-134, 120 h, 5 days, viable cells by CellTiter-Glo. Put shortly: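 CHP-134 cells seeded at 200 cells/well for 16 h, then given nine 1:3 serial dilutions in quadruplicate at 37° C, 5% CO2. Viable cells measured by CellTiter-Glo luminescence after 5 days; IC50 calculated from curves.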
In general terms: ATP-based viability assays read luminescence as a measure of living cells.

The target of experiment [1] is human recombinant Aurora B (Homo sapiens (Human), UniProt Q96GD4). In words: Aurora B Kinase Biochemical Assay (ADP-Glo). Particulars: ratio of Aurora B IC50 to PLK4 IC50 (selectivity). Put shortly:
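Recombinant human Aurora B (20 nM in pH 7.5 HEPES buffer with MgCl2, EGTA, DTT, Brij-35, BSA) preincubated with compound 15 min at RT. ADP formed quantified by ADP-Glo luminescence after ATP depletion (40 min) and detection (30 min). IC50 from four-parameter non-linear regression.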

Experiment [2] concerns the target human recombinant Aurora A (Homo sapiens (Human), UniProt O14965). The experiment can be described thus: Aurora A Kinase Biochemical Assay (ADP-Glo). To be noted: ratio of Aurora A IC50 to PLK4 IC50 (selectivity).

human recombinant Aurora B, sequence (Q96GD4 whole entry): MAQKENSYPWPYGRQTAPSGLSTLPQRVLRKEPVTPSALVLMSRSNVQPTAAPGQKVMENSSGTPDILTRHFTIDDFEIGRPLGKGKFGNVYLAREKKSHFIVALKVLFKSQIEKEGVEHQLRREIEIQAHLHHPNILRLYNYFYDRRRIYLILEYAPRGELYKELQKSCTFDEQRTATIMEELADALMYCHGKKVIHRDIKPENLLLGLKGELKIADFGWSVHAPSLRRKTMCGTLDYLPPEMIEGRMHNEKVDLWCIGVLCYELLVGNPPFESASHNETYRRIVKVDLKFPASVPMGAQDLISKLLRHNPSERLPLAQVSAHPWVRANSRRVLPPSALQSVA
human recombinant Aurora A, sequence (O14965 whole entry): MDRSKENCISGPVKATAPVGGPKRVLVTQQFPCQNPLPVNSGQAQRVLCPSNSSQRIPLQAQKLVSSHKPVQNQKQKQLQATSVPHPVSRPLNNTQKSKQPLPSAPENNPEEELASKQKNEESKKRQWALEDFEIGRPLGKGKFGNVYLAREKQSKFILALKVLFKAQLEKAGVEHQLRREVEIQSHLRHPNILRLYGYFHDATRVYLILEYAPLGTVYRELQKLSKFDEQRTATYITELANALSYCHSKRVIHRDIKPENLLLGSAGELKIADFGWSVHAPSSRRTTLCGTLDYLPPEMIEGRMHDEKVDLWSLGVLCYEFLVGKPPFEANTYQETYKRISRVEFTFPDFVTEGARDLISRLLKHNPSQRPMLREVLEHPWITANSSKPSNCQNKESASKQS
human recombinant PLK4, sequence (O00444 whole entry): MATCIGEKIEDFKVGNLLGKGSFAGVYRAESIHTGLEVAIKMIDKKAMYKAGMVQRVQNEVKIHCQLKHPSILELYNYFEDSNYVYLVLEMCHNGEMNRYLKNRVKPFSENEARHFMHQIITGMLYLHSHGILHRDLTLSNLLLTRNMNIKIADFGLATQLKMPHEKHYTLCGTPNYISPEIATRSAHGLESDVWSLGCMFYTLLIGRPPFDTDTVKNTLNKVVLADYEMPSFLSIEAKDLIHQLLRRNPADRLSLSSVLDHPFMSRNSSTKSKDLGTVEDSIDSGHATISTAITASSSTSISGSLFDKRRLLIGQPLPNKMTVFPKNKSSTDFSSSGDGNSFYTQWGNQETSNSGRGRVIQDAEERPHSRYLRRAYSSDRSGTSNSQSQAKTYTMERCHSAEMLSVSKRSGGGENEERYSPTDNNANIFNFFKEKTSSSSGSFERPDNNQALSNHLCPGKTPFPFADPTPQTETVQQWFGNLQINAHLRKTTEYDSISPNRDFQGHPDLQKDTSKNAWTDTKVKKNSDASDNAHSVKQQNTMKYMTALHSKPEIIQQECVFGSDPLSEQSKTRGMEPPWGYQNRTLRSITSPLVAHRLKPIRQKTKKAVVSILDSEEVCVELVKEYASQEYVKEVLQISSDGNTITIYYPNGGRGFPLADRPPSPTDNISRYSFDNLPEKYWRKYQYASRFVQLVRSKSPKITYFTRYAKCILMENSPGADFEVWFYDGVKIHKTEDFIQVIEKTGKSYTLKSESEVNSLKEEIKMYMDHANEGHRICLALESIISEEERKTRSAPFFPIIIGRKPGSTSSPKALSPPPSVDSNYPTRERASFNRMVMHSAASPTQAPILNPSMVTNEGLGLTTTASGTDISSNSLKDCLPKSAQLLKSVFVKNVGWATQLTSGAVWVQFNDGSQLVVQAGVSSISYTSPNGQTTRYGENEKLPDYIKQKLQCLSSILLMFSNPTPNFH

Usually IC50 stands for the concentration needed to halve the response being measured. Consider `CCS(=O)(=O)c1ccc(OC)c(Nc2n[nH]c3cc([C@@H]4C[C@@]45C(=O)Nc4ccc(OC)cc45)ccc23)c1` [Example 175, (1R,2S)-2-{3-[5-(ethanesulfonyl)-2-methoxyanilino]-1H-indazol-6-yl}-5′-methoxyspiro[cyclopropane-1,3′-indol]-2′(1′H)-one], for which the results for the IC50 on human recombinant PLK4 and with CHP-134 cells were 3.57 nM and 2210 nM, respectively. Moreover, the “[Aurora B IC50 (nM)]/[PLK4 IC50 (nM)]” value in experiment [1] is recorded as 8627.0664. Moreover, the “[Aurora A IC50 (nM)]/[PLK4 IC50 (nM)]” value in experiment [2] was 14009.5265.
The corresponding values for `COc1ccc2c(c1)[C@]1(C[C@H]1c1ccc3c(Nc4cc(C(=O)N(C)C)ccc4OC)n[nH]c3c1)C(=O)N2` [Example 176, 4-methoxy-3-({6-[(1R,2S)-5′-methoxy-2′-oxo-1′,2′-dihydrospiro[cyclopropane-1,3′-indol]-2-yl]-1H-indazol-3-yl}amino)-N,N-dimethylbenzamide] are 2.84 nM, 1550 nM, 1300.3869 and 1725.2902.
The corresponding values for `CNC(=O)c1ccc(OC)c(Nc2n[nH]c3cc([C@@H]4C[C@@]45C(=O)Nc4ccc(OC)cc45)ccc23)c1` [Example 177, 4-methoxy-3-({6-[(1R,2S)-5′-methoxy-2′-oxo-1′,2′-dihydrospiro[cyclopropane-1,3′-indol]-2-yl]-1H-indazol-3-yl}amino)-N-methylbenzamide] are 4.25 nM, 3680 nM, 11750.8813 and 11750.8813.
Regarding `COc1ccc2c(c1)[C@]1(C[C@H]1c1ccc3c(Nc4cc(S(=O)(=O)C(C)C)ccc4OC)n[nH]c3c1)C(=O)N2` [Example 178, (1R,2S)-5′-methoxy-2-{3-[2-methoxy-5-(propane-2-sulfonyl)anilino]-1H-indazol-6-yl}spiro[cyclopropane-1,3′-indol]-2′(1′H)-one], the half-inhibitory concentration (IC50) on human recombinant PLK4 is 3.29 nM; in the experiment on CHP-134 cells it was 631 nM. Further, the “[Aurora B IC50 (nM)]/[PLK4 IC50 (nM)]” value in experiment [1] worked out at 15179.1135. Moreover, in experiment [2], the “[Aurora A IC50 (nM)]/[PLK4 IC50 (nM)]” value was found to be 15179.1135.
As to `COc1ccc2c(c1)[C@]1(C[C@H]1c1ccc3c(Nc4cc(S(=O)(=O)N(C)C)ccc4OC)n[nH]c3c1)C(=O)N2` [Example 179, 4-methoxy-3-({6-[(1R,2S)-5′-methoxy-2′-oxo-1′,2′-dihydrospiro[cyclopropane-1,3′-indol]-2-yl]-1H-indazol-3-yl}amino)-N,N-dimethylbenzene-1-sulfonamide], the IC50 at human recombinant PLK4 was 3.81 nM; in the experiment with CHP-134 cells, 948 nM. Also, the “[Aurora B IC50 (nM)]/[PLK4 IC50 (nM)]” value in experiment [1] is 5384.4135. Moreover, the “[Aurora A IC50 (nM)]/[PLK4 IC50 (nM)]” value in experiment [2] was 13119.9160.
In the same order, the values of `COc1ccc2c(c1)[C@]1(C[C@H]1c1ccc3c(Nc4cc(C(=O)N5CCOCC5)ccc4OC)n[nH]c3c1)C(=O)N2` [Example 180, (1R,2S)-5′-methoxy-2-{3-[2-methoxy-5-(morpholine-4-carbonyl)anilino]-1H-indazol-6-yl}spiro[cyclopropane-1,3′-indol]-2′(1′H)-one] are 2.85 nM, 741 nM, 1996.8465 and 5455.5011.
The corresponding values for `COc1ccc2c(c1)[C@]1(C[C@H]1c1ccc3c(Nc4ccc(C(=O)N5CCOCC5)nc4OC)n[nH]c3c1)C(=O)N2` [Example 183, (1R,2S)-5′-methoxy-2-(3-{[2-methoxy-6-(morpholine-4-carbonyl)pyridin-3-yl]amino}-1H-indazol-6-yl)spiro(cyclopropane-1,3′-indol]-2′(1′H)-one] are 1.25 nM, 125 nM, 322.5703 and 534.2169.
In the case of `COc1ccc2c(c1)[C@]1(C[C@H]1c1ccc3c(Nc4ccc(C(=O)N5CC(F)(F)C5)nc4OC)n[nH]c3c1)C(=O)N2` [Example 184, (1R,2S)-2-(3-{[6-(3,3-difluoroazetidine-1-carbonyl)-2-methoxypyridin-3-yl]amino}-1H-indazol-6-yl)-5′-methoxyspiro[cyclopropane-1,3′-indol]-2′(1′H)-one], the IC50 on human recombinant PLK4 was 7 nM; in the experiment with CHP-134 cells, 882 nM. Besides, the “[Aurora B IC50 (nM)]/[PLK4 IC50 (nM)]” value in experiment [1] turned out to be 7144.8985. For the same compound, in experiment [2], the “[Aurora A IC50 (nM)]/[PLK4 IC50 (nM)]” value was found to be 7144.8985.
As for `COc1ccc2c(c1)[C@]1(C[C@H]1c1ccc3c(Nc4ccc(C(=O)N5CCC(F)(F)CC5)nc4OC)n[nH]c3c1)C(=O)N2` [Example 185, (1R,2S)-2-(3-{[6-(4,4-difluoropiperidine-1-carbonyl)-2-methoxypyridin-3-yl]amino}-1H-indazol-6-yl)-5′-methoxyspiro[cyclopropane-1,3′-indol]-2′(1′H)-one], the IC50 stood at 1.96 nM on human recombinant PLK4 and 134 nM with CHP-134 cells. Also, the “[Aurora B IC50 (nM)]/[PLK4 IC50 (nM)]” value in experiment [1] is reported as 180.1636. Further, the “[Aurora A IC50 (nM)]/[PLK4 IC50 (nM)]” value in experiment [2] is on record as 3240.7975.
The corresponding values for `COc1ccc2c(c1)[C@]1(C[C@H]1c1cc(F)c3c(Nc4nc(SC)ncc4OC)n[nH]c3c1)C(=O)N2` [Example 186, (1R,2S)-2-(4-fluoro-3-{[5-methoxy-2-(methylsulfanyl)pyrimidin-4-yl]amino}-1H-indazol-6-yl)-5′-methoxyspiro[cyclopropane-1,3′-indol]-2′(1′H)-one] are 1.78 nM, 537 nM, 232.5464 and 641.9337.
The corresponding values for `COc1ccc2c(c1)[C@]1(C[C@H]1c1ccc3c(Nc4nc(OC)ncc4C)n[nH]c3c1)C(=O)N2` [Example 187, (1R,2S)-5′-methoxy-2-{3-[(2-methoxy-5-methylpyrimidin-4-yl)amino]-1H-indazol-6-yl}spiro[cyclopropane-1,3′-indol]-2′(1′H)-one] are 6.12 nM, 563 nM, 112.2793 and 109.5814.
In the same order, the values of `COc1ccc2c(c1)[C@]1(C[C@H]1c1ccc3c(Nc4ccc(C(=O)N5CC6(COC6)C5)nc4OC)n[nH]c3c1)C(=O)N2` [Example 188, (1R,2S)-5′-methoxy-2-(3-{[2-methoxy-6-(2-oxa-6-azaspiro[3.3]heptane-6-carbonyl)pyridin-3-yl]amino}-1H-indazol-6-yl)spiro[cyclopropane-1,3′-indol]-2′(1′H)-one] are 6.27 nM, 760 nM, 191.7065 and 7974.4817.
For the compound `COc1ccc2c(c1)[C@]1(C[C@H]1c1ccc3c(Nc4nc(N5CCC(F)(F)CC5)ncc4OC)n[nH]c3c1)C(=O)N2` [Example 189, (1R,2S)-2-(3-{[2-(4,4-difluornpiperidin-1-yl)-5-methoiypyrimidin-4-yl]amino}-1H-indazol-6-yl)-5′-methoxyspiro[cyclopropane-1,3′-indol]-2′(1′H)-one], the IC50 on human recombinant PLK4 is 1.04 nM; in the experiment with CHP-134 cells, 112 nM. In addition, the “[Aurora B IC50 (nM)]/[PLK4 IC50 (nM)]” value in experiment [1] worked out at 514.5455. Moreover, the “[Aurora A IC50 (nM)]/[PLK4 IC50 (nM)]” value in experiment [2] worked out at 383.7321.
For the compound `COc1ccc2c(c1)[C@]1(C[C@H]1c1ccc3c(Nc4nc(N5CCS(=O)(=O)CC5)ncc4OC)n[nH]c3c1)C(=O)N2` [Example 190, 4-[5-methoxy-4-({6-[(1R,2S)-5′-methoxy-2′-oxo-1′,2′-dihydrospiro[cyclopropane-1,3′-indol]-2-yl]-1H-indazol-3-yl}amino)pyrimidin-2-yl]-1λ6-thiomorpholine-1,1-dione], the IC50 was found to be 2.66 nM on human recombinant PLK4 and 5120 nM in the experiment on CHP-134 cells. Besides, the “[Aurora B IC50 (nM)]/[PLK4 IC50 (nM)]” value in experiment [1] is listed as 279.1432. The “[Aurora A IC50 (nM)]/[PLK4 IC50 (nM)]” value in experiment [2] is 129.5378.
The corresponding values for `CNC(=O)c1ccc(Nc2n[nH]c3cc([C@@H]4C[C@@]45C(=O)Nc4ccc(OC)cc45)ccc23)c(OC)n1` [Example 191, 6-methoxy-5-({6-[(1R,2S)-5′-methoxy-2′-oxo-1′,2′-dihydrospiro[cyclopropane-1,3′-indol]-2-yl]-1H-indazol-3-yl}amino)-N-methylpyridine-2-carboxamide] are 2.27 nM, 494 nM, 84.9956 and 2416.5931.
The corresponding values for `COc1ccc2c(c1)[C@]1(C[C@H]1c1ccc3c(Nc4nc(N5CC6(COC6)C5)ncc4OC)n[nH]c3c1)C(=O)N2` [Example 192, (1R,2S)-5′-methoxy-2-(3-{[5-methoxy-2-(2-oxa-6-azaspiro[3.3]heptan-6-yl)pyrimidin-4-yl]amino}-1H-indazol-6-yl)spiro[cyclopropane-1,3′-indol]-2′(1′H)-one] are 1.64 nM, 1180 nM, 678.4625 and 2835.2654.
